Measured values from publication PMC8065974 (Biomedicines, 2021).
Like-named read-outs stand apart in the source and are kept apart here.

Experiments:
Format in all cases: in vivo, mice (C57BL/6J)
[1] = Biodistribution of caffeic acid and ferulic acid after A. borbonica extract (UPLC-MS); details: for concentration at 24 h: C57BL/6J, mouse, oral, 25 mg/kg; for Concentration in urine: urine collected overnight
Protocol: Polyphenolic extract from A. borbonica was prepared by dissolving 1 g of crushed leaves in 25 mL of an aqueous acetonic solution (70%, v/v). After incubation at 4 °C for 90 min, the mixture was centrifuged at 3500× g […] at 4 °C for 20 min and polyphenol-rich supernatant was collected and stored at −80 °C until analysis. Identification of polyphenols was carried out by ultra-high-performance liquid chromatography (UHPLC) coupled with diode array detection and a HESI-Orbitrap mass spectrometer (Q Exactive Plus, Thermo Fisher). A 10 µL sample volume was injected using an UHPLC system equipped with a Thermo Fisher Ultimate 3000 series WPS-3000 RS autosampler and then separated on a PFP column (2.6 μm, 100 mm × 2.1 mm, Phenomenex, Torrance, CA, USA). The column was eluted with a gradient mixture of 0.1% formic acid in water (A) and 0.1% formic acid in acetonitrile (B) at the flow rate of 0.450 mL/min, with 5% B at 0.00 to 0.1 min, 35% B at 0.1 to 7.1 min, 95% B at 7.2 to 7.9 min and 5% B at 8.0 to 10 min. The column temperature was held at 30 °C and the detection wavelengths were set to 280 and 310 nm.
For mass spectrometer conditions, a Heated Electrospray Ionization source II (HESI II) was used. Nitrogen was used as drying gas. The mass spectrometric conditions were optimized as follows: spray voltage = 2.8 kV, capillary temperature = 350 °C, sheath gas flow rate = 60 units, aux gas flow rate = 20 units and S lens RF level = 50. Mass spectra were registered in full scan mode from m/z 100 to 1500 in negative ion mode at a resolving power of 70,000 FWHM at m/z 400. The automatic gain control (AGC) was set at 1e6. The MS/MS spectra were obtained by applying a relatively higher energy collisional dissociation (HCD) energy of 25%.
For biodistribution study, one day before sacrifice animals were placed in metabolic cages to collect urine overnight. CA and its metabolites were measured by UPLC-MS/MS in liver and kidney tissues and urine.

[2] = Plasma and kidney pharmacokinetics after a single oral dose of CA in UUO mice; details: single oral dose of CA 25 mg/kg, 3 days-UUO mice; for Cmax: n = 3/time, read-out: Cmax (peak plasma concentration)
Protocol: For pharmacokinetics study, the animals were submitted to UUO and 3 days later they were fasted overnight and then treated with a single dose of CA (25 mg/kg) or vehicle (n = 3/group). Blood samples (90 µL) were collected at time 0 (before treatment), 30 min, 60 min, 180 min and 360 min post-treatment. CA concentrations were measured by UPLC-HESI-Q-orbitrap (Q Exactive Plus).
To this end, three days after UUO, mice were administrated by oral route a unique dose of CA (25 mg/kg) and then were sacrificed at 30, 60, 180 and 360 min.

[3] = DESI-HR/MS imaging of obstructed kidney; details: 1 h post oral administration of CA 25 mg/kg, UUO mice
Protocol: The 2D automated Omni Spray Kidney tissues were flash-frozen in nitrogen and stored at −80 °C before DESI-HR/MS imaging. For DESI-MS imaging and histology, 12 μm thickness kidney sections were collected and mounted on SuperFrost™ Plus glass slides.
The 2D automated Omni Spray ion source from Prosolia Inc. (Indianapolis, IN, USA) coupled to a Q-Exactive™ Plus mass spectrometer (Thermo Fisher Scientific, Bremen, Germany) was used to perform the mass spectrometry imaging experiment. A solution of methanol with 0.1% formic acid (HPLC-MS grade, Carlo Erba) was used as the extraction and ionization spray solvent, delivered by a syringe pump at a flow rate of 5 μL/min. All imaging experiments were carried out with the following experimental conditions including source parameters: 2.8 kV capillary voltage, 250 °C capillary temperature, 60% S-lens RF level and 86 psi nitrogen nebulizing gas pressure, and including geometrical parameters: ∼1 mm spray tip-to-surface distance and a spray incident angle of 60°. Mass spectra were registered in full scan mode with the mass spectrometer operating in negative mode. Survey full scan mass spectra were acquired in the 50 to 500 m/z range at resolving power 70,000 (at m/z 400) with an automatic gain control (AGC) target of 3^6 and maximum injection time of 200 ms. […]

[4] = tested on: unilateral ureteral obstruction (UUO) mouse model; assay: Curative treatment in UUO-induced tubulointerstitial fibrosis: immunohistochemistry and Sirius red histology; details: curative: 25 mg/kg daily gavage from day 3 after UUO for 5 days; vs UUO + vehicle; n = 7
Protocol: The unilateral ureteral ligation was performed as previously described. Briefly, under oxygen-isoflurane anesthesia and through a longitudinal, left abdominal incision, the ureter was exposed and ligated with a 6/0 nylon thread at the uretero-pelvic junction. In sham operations, the ureter was exposed but not ligated and repositioned. To reduce pain Buprenorphine (0.01 mg/kg) (Buprecare […], France) was injected i.p before surgery and 12 h later. […] A. borbonica polyphenol extract (25 mg/kg) or CA (25 mg/kg) were resuspended in distilled water just before gavage. The control group received only the vehicle (distilled water). At the end of the different protocols, mice were sacrificed and the kidneys were removed, and a transverse section was fixed in Carnoy's solution for 24 h and subsequently embedded in paraffin for immuno-histological analysis. Several pieces of renal cortex were snap-frozen in liquid nitrogen and stored at -80 °C for mRNA, enzyme activities and MS/MS analysis. Kidneys were fixed in Carnoy's solution, dehydrated and embedded in paraffin. From kidney sections, routine histology and immunohistological staining and analysis were performed as previously described. Three to four μm thickness sections were cut and used for routine staining (hematoxylin-eosin and Sirius red staining) and immunohistochemistry. […] For immunohistochemistry, mouse renal tissue was first de-waxed in toluene and rehydrated through a series of graded ethanol washes before incubation with 3% hydrogen peroxide for 10 min at room temperature to block endogenous peroxidase activity. […] The sections were subsequently stained with the Dako Envision system ([…] (primary antibodies from mouse) and K4002 (primary antibodies from rabbit)) according to manufacturer's instruction. Sections were finally counterstained with hematoxylin. Negative controls for the immunohistochemical procedures included substitution of the primary antibody with nonimmune sera at a similar immunoglobin concentration. […]

[5] = tested on: mRNA of inflammatory, fibrotic and antioxidant genes in obstructed kidney; assay: Curative treatment in UUO: RT-qPCR of obstructed kidney; details: curative: 25 mg/kg daily gavage from day 3 after UUO for 5 days
Protocol: The unilateral ureteral ligation was performed as previously described. Briefly, under oxygen-isoflurane anesthesia and through a longitudinal, left abdominal incision, the ureter was exposed and ligated with a 6/0 nylon thread at the uretero-pelvic junction. In sham operations, the ureter was exposed but not ligated and repositioned. To reduce pain Buprenorphine (0.01 mg/kg) (Buprecare […], France) was injected i.p before surgery and 12 h later. […] A. borbonica polyphenol extract (25 mg/kg) or CA (25 mg/kg) were resuspended in distilled water just before gavage. The control group received only the vehicle (distilled water). At the end of the different protocols, mice were sacrificed and the kidneys were removed, and a transverse section was fixed in Carnoy's solution for 24 h and subsequently embedded in paraffin for immuno-histological analysis. Several pieces of renal cortex were snap-frozen in liquid nitrogen and stored at -80 °C for mRNA, enzyme activities and MS/MS analysis. Total RNA was isolated from mouse kidneys with TRIzol^TM reagent (Invitrogen). […] The quantitative real-time polymerase chain reaction was performed in a 96 well plate using SYBR green^TM master mix (Eurogentec). Analysis of GAPDH was performed to normalize gene expression and the relative mRNA fold changes between groups were calculated using the 2^-^ΔΔ^Ct method.

[6] = tested on: Mn-SOD, Cu/Zn-SOD, GPX, CAT activities in obstructed kidney; assay: Curative treatment in UUO: antioxidant enzyme activities in kidney tissue; details: curative: 25 mg/kg, 5 days; vs UUO + vehicle
Protocol: After centrifugation (5000× g[…], for 10 min), the supernatant was used for protein quantification and enzymatic assays. The total protein level of lysate was quantified by the bicinchoninic acid assay (BCA). SOD activity was assayed by monitoring the rate of acetylated cytochrome c reduction by superoxide radicals generated by the xanthine/xanthine oxidase system. Measurements were performed in a reagent buffer (xanthine oxidase, xanthine (0.5 mM), cytochrome c (0.2 mM), KH2PO4 (50 mM), EDTA (2 mM), pH 7.8) at 25 °C. The specific MnSOD activities were determined in the same conditions after incubation of samples with NaCN (1 mM) which inhibits Cu/ZnSOD activities. Assays were monitored by spectrophotometry at 560 nm. SOD activities were calculated using a calibration standard curve of SOD (up to 6 unit/mg). Total SOD, MnSOD and resulting Cu/ZnSOD activities were expressed as international catalytic units per mg of proteins. The total activity of glutathione peroxidase (GPX) was determined with cumene hydroperoxide as substrate. The rate of glutathione oxidized by cumene hydroperoxide (6.5 mM) was evaluated by the decrease in NADPH (0.12 mM in Tris buffer) at 340 nm in the presence of NaCN (10 mM), reduced glutathione (0.25 mM) and glutathione reductase (1 U/mL) in Tris buffer (50 mM, pH 8). GPX activity was expressed as international units per gram of proteins. The catalase (CAT) activity assay was carried out on 40 µg of protein lysate in 25 mM Tris–HCl (pH 7.5). Blanks were measured at 240 nm just before adding 80 µL of H2O2 (10 mM final) to start the reaction. Catalase activity was determined by measuring the absorbance at 240 nm and was calculated using a calibration standard curve of an increasing amount of catalase between 12.5 and 125 unit/mL. Catalase activity was expressed as international catalytic units per mg of proteins.

[7] = tested on: protein carbonyl in obstructed kidney; assay: Curative treatment in UUO: protein carbonylation (carbonyl ELISA); details: curative: 25 mg/kg, 5 days; vs UUO + vehicle
Protocol: The protein carbonylation was determined as described previously by the carbonyl ELISA assay based on the recognition of protein-bound DNPH in carbonylated proteins with an anti-DNP antibody.

[8] = liver, read-out: Concentration in liver
[9] = UUO mice after ingestion of 25 mg/kg A. borbonica extract (gavage), n = 7, mean ± SD
[10] = C57BL/6J, mouse, contralateral kidney, read-out: AUC (0-360) in contralateral kidney (converted)
[11] = C57BL/6J, mouse, contralateral kidney, read-out: concentration in contralateral kidney one hour after CA administration
[12] = C57BL/6J, mouse, obstructed kidney, read-out: AUC (0-360) in obstructed kidney (converted)
[13] = C57BL/6J, mouse, obstructed kidney, read-out: concentration in obstructed kidney one hour after CA administration
[14] = C57BL/6J, mouse, plasma, 0 to 360 min, read-out: AUC (0-360) in plasma (converted)

concentration at 24 h [1, 8] [µM] | Concentration in urine [1, 9] [µM] | AUC(0-t) [2, 10] [µM·h] | concentration at 1 h [2, 11] [µM] | AUC(0-t) [2, 12] [µM·h] | concentration at 1 h [2, 13] [µM] | AUC(0-t) [2, 14] [µM·h] | Cmax ([2]; C57BL/6J, mouse, plasma) [µM] | tmax ([2]; plasma) | Structure (SMILES) | further results
0.426 ± 0.099 | 38.002 ± 5.021 | 1.64 | 0.4 ± 0.1 | 17.9 | 4.5 ± 0.8 | 77.5 | 68.3 ± 8.3 | same tmax as CA | COc1cc(/C=C/C(=O)O)ccc1O [Ferulic acid, ferulic acid] | Concentration in urine ([1]; UUO mice after ingestion of 25 mg/kg A. borbonica extract (gavage), n = 7, mean ± SD, listed as FA): 38.002 ± 5.021 µM; spatial distribution in obstructed kidney (DESI-HR/MS imaging) [3]: in the renal cortex
0.037 ± 0.001 | 96.599 ± 19.704 | 1.67 | 0.3 ± 0.1 | 14.7 | 5.3 ± 1.1 | 82.7 | 50.5 | 30 min | O=C(O)/C=C/c1ccc(O)c(O)c1 [Caffeic acid, caffeic acid] | extracellular matrix accumulation / renal tubulointerstitial fibrosis (Sirius red staining) [4]: significant protective effect; macrophage infiltration (F4/80 immunostaining) [4]: significant protective effect; myofibroblast appearance/accumulation (α-SMA immunostaining) [4]: significant protective effect; Nrf2 mRNA expression [5]: significant increase; UUO-induced mRNA expression of inflammatory and fibrotic genes (Tgf-β, Tnf-α, Nf-κB, Mcp1, Fn, Col I, Col III) ([5]; vs UUO + vehicle): downregulated; CAT enzyme activity in obstructed kidney [6]: significantly increased; Cu/Zn-SOD enzyme activity in obstructed kidney [6]: significantly increased; GPX enzyme activity in obstructed kidney [6]: not significantly different; UUO-induced increase in protein carbonyl level in obstructed kidney [7]: slight decrease in carbonyl level which did not reach statistical significance; concentration at 24 h ([1]; obstructed kidney, read-out: Concentration in obstructed kidney): 0.144 ± 0.013 µM; Concentration in obstructed kidney ([1]; UUO mice after ingestion of 25 mg/kg A. borbonica extract (gavage), 24 h after administration, n = 7, mean ± SD): 0.144 ± 0.013 µM; Concentration in urine ([1]; UUO mice after ingestion of 25 mg/kg A. borbonica extract (gavage), n = 7, mean ± SD, listed as CA): 96.599 ± 19.704 µM; tmax ([2]; C57BL/6J, mouse, plasma, po, 25 mg/kg, plasma, read-out: tmax): ≤ 30 min; bioavailability ([2]; C57BL/6J, mouse, plasma, read-out: Bioavailability F): 0.4%
